The values that follow come from PubChem BioAssay AID463229 (Broad Institute, 2010).

Each structure is given as a SMILES string. The source made the active and inactive calls.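 The calls were made as follows: active = compounds raising the signal whose fitted half-maximal concentration is at or below their top tested dose (cut at about 25 µM in these data); inconclusive = flat fit at 30 to 70% activity, or a poor fit; inactive = the rest.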

This experiment relates to INS-1E rat beta cells, no cytokines, CellTiter-Glo ATP, 48 h. Description: cytokine-free beta-cell viability effect – INS-1E rat cells, ATP luminescence, cherry pick, counter-screen for beta-cell apoptosis protection project, dose response (AID 463229).
With `CCCOCc1ccc(O)c2ncccc12`, the AC50 was 7.79 µM. Take `Clc1ccc(CSc2ccc(-c3ccccn3)nn2)cc1`: the AC50 was 6.32 µM.

For the compound `CCOC(=O)c1c(C)[nH]c(C(=O)N/N=C\c2ccccc2O)c1C`, the AC50 was 6.52 µM. `O=C1C(Nc2ccccc2)=C/C(=N/S(=O)(=O)c2cccs2)c2ccccc21`: the AC50 was 2.07 µM. As to `COc1cccc(N2CCN(c3ncnc4c3[nH]c3ccc(F)cc34)CC2C)c1` (configuration not stated), the AC50 is 3.09 µM.

On to `CCN1/C(=C/c2cccc[n+]2C)Sc2ccc(OC)cc21`, for which the AC50 is 1.58 µM. Take `Cc1cccc(NC(=O)/C=C/c2ccc([N+](=O)[O-])s2)c1`: the AC50 is 8.56 µM. `Cc1sc2ncnc(N3CCN(S(=O)(=O)c4ccccc4)CC3)c2c1C`: the AC50 was 5.98 µM. As to `O=C(C1=C[C@@H](c2ccc(C(F)(F)F)cc2)C[C@@H](OCCCCO)O1)N1CCN(Cc2ccccc2)CC1`, the AC50 was 12.6 µM. Under `CC(=O)C1=NN(c2ccccc2)C(c2cccs2)N1c1ccc(N(C)C)cc1` (configuration not stated) stands 3.56 µM; under `Nc1ccccc1C#CC(=O)c1ccccc1`, 11.9 µM. Next, `C(C#CCCCCCCCCC[n+]1ccccc1)#CCCCCCCCCC[n+]1ccccc1`: 1.9 µM; `COC(=O)c1ccccc1NC1=C/C(=N\S(=O)(=O)c2cccs2)c2ccccc2C1=O`: 8.33 µM; `CC(C)(C)C(=O)Nc1ccc(C(=O)N/N=C/c2ccccc2OC(=O)c2ccc(Cl)cc2)cc1`: 11.8 µM. In the case of `COC(=O)c1c(C)oc2ccc(N(C(=O)c3ccncc3)S(=O)(=O)c3ccc(C)cc3C)cc12`, the AC50 was 5.76 µM. Turning to `Cc1oc2c(c1C(=O)N1CCOCC1)C(=O)c1ccccc1C2=O`, the AC50 was 8.12 µM. Turning to `CC[n+]1ccc(/C=C/c2c[nH]c3ccccc23)cc1`, the AC50 is 5.85 µM.

`Cn1c(-c2ccccc2)cc2c3no[n+]([O-])c3ccc21`: the AC50 was 7.82 µM.

For the compound `CCCCCCCC(=O)Nc1ccc(C(=O)N/N=C/c2cccc([N+](=O)[O-])c2)cc1`, the concentration at half-maximal activity (AC50) is 6.63 µM. Next, `COc1ccc2cc1Oc1ccc(cc1)C[C@H]1c3c(cc(OC)c4c3Oc3c(ccc5c3[C@H](C2)N(C)CC5)O4)CCN1C`: 7.68 µM; `COc1ccc(Cn2c(SCc3ccccc3C)nc3cc(OC)c(OC)cc3c2=N)cc1`: 7.93 µM; `CCCCC(CC)CN1C(=O)/C(=C/c2ccncc2)SC1=S` (configuration not stated): > 26 µM (inactive).

Consider `C/C(=N\NC(=O)c1cc(C)nc2ccccc12)c1ccccn1`, for which the AC50 was 2.83 µM.

As to `Cc1ccc(NC(=O)c2ccccc2NS(=O)(=O)c2ccc(Cl)s2)cc1`, the AC50 is 5.78 µM. With `O=C(Nc1nc2ccccc2s1)c1cc(-c2ccccc2)nn1-c1ccccc1`, the AC50 is 3.74 µM. Next, `CCN(CC)S(=O)(=O)c1ccc(N2CCN(c3ccccc3OC)CC2)c(N)c1`: 5.19 µM; `Cc1cc(C)c2nc(NNC(=O)c3ccc(S(=O)(=O)N4CCCC(C)C4)cc3)sc2c1` (configuration not stated): 4.52 µM. Under `CCN(CC)c1ccc(/C=N/NC(=O)c2ccoc2C)c(O)c1` stands 2.04 µM; under `Cc1sc2ncnc(N3CCN(S(=O)(=O)c4ccc(C(C)(C)C)cc4)CC3)c2c1C`, 4.17 µM. Regarding `[O-]c1ccccc1-[n+]1c(-c2ccccc2)cc(-c2ccccc2)cc1-c1ccccc1`, the AC50 was 6.87 µM. As for `Clc1ccc2c(N/N=C/c3cccc(Br)c3)ccnc2c1`, the AC50 was 10.7 µM. Under `CC(C)(C)c1ccc(C(O)CCCN2CCC(C(O)(c3ccccc3)c3ccccc3)CC2)cc1` (configuration not stated) stands 8.16 µM; under `COc1ccc(O)c(/C=N/NC(=S)Nc2cccnc2)c1`, 15.6 µM. Under `COc1cc2cc(C(=O)N3CCOCC3)cc(-c3ccc(C)cc3)c2cc1OC` stands 5.15 µM; under `COc1ccc(/C=C2\CN(Cc3ccccc3)C/C(=C\c3ccc(OC)c(O)c3)C2=O)cc1O`, 4.75 µM; under `CCCCCCCCCCOC(=O)Cn1c(COc2cccc(C)c2)[n+](C)c2ccccc21`, 4.71 µM. For the compound `CCOC(=O)c1nc(NNC(=O)c2ccc([N+](=O)[O-])cc2)sc1C`, the AC50 is 7.04 µM. On to `CCC(O)C1CCN(C(=O)c2cc(COc3ccc4ncccc4c3)on2)CC1` (configuration not stated), for which the AC50 is 5.52 µM. Next, `Cc1ccc2nc(-c3ccc(-c4cccc(Cl)c4)cc3)c(NCc3ccccc3)n2c1`: 2.48 µM; `CCc1ccc(-n2cc(-c3ccc(F)cc3)[n+]3c2SCCC3)cc1`: 0.413 µM; `CC(C)Nc1ccc(Nc2ccnc3cc4ccccc4cc23)cc1`: 7.2 µM. Under `Cc1nc(Nc2ccc(Cl)c(Cl)c2)sc1C(=O)Nc1ccccc1` stands 9.24 µM. Next, `N#C/C(=N\Nc1ccc(Cl)cc1)C(=O)c1ccccc1`: 2.84 µM. With `CCN(CC)CCOc1ccc2c(c1)C(=NNC(=O)c1ccccn1)c1cc(OCCN(CC)CC)ccc1-2`, the AC50 is 13.8 µM.

Turning to `CCCCOc1ncnc2c1[nH]c1ccc(F)cc12`, the AC50 is 5.3 µM. Under `Cc1cc(/C=N/n2c(COc3ccccc3C)nc3ccccc3c2=O)c(O)c([N+](=O)[O-])c1` stands 8.92 µM; under `CCOc1ccc(C(Nc2cccnc2)c2cc(Cl)c3cccnc3c2O)cc1` (configuration not stated), 7.33 µM; under `CCCCCCCCCCOC(=O)Cn1c(COc2ccccc2C)[n+](C)c2ccccc21`, 3.22 µM.

Turning to `COc1ccc(NS(=O)(=O)c2ccc(-c3coc(C)n3)cc2)cc1OC`, the AC50 is 4.39 µM.

Take `Cc1ccc(-c2cc3cccc[n+]3cc2-c2ccc(C)cc2)cc1`: the AC50 was 0.566 µM. Next, `CC(=O)c1c(C)oc2ccc(N(C(C)=O)S(=O)(=O)c3cccc4cccnc34)cc12`: 7.79 µM; `CCC(C)(C)c1ccc(OCCCC[n+]2ccc(C)cc2)c(C(C)(C)CC)c1`: 1.91 µM; `Cc1ccc(-n2c(-c3ccc(Br)cc3)c[n+]3c2CCc2ccc4cccnc4c2-3)cc1`: 0.482 µM. Under `Cc1ccc(S(=O)(=O)/N=C2\C=C(Nc3cccc(C(=O)O)c3)C(=O)c3ccccc32)c(C)c1` stands 7.81 µM. With `Cc1cc(OCc2nc(-c3ccc(NC(=O)c4cccnc4)cc3)no2)ccc1Cl`, the concentration at half-maximal activity (AC50) is 1.16 µM. Under `CCCOC(=O)c1ccc(-[n+]2c(-c3ccccc3)cc(-c3ccccc3)cc2-c2ccccc2)cc1` stands 2.15 µM; under `CC(=O)Oc1c(C)cc(Cl)cc1C(=O)Nc1ccc([N+](=O)[O-])cc1Cl`, 1.43 µM; under `CC(=O)/C=C1\N(C)c2ccc(C)cc2C1(C)C`, 7.3 µM.

`O=C(N/N=C\c1c(O)ccc2ccccc12)c1ccc(S(=O)(=O)N2CCCCC2)cc1`: the AC50 is 1.11 µM. Next, `CCc1ccc(C2=NNC(=Nc3cccc(S(=O)(=O)N(C)C)c3)SC2)cc1`: 3.66 µM; `CCCCSc1ccc(NC(=O)c2cccnc2)cc1`: 14.7 µM. Next, `Cc1ccc(-c2cc(-c3ccccc3)cc(-c3ccccc3)[n+]2-c2ccccc2)cc1`: 2.08 µM; `Cc1ccc([N+](=O)[O-])cc1N(CC(=O)Nc1ccc(S(=O)(=O)Nc2cccc(C(F)(F)F)c2)cc1)S(C)(=O)=O`: 4.1 µM; `COc1cccc(/C=N/Nc2nc3ccccc3n3cnnc23)c1O`: 7.23 µM. Next, `CCC(CO)Oc1cc(NCc2ccc(C)c(C)c2)c2ncn(C(C)C)c2c1` (configuration not stated): 4.91 µM; `COc1ccc(C(=O)N/N=C/c2sc3ccccc3c2O)cc1`: 7.83 µM; `Cc1nc(N2CCN(C(=O)c3ccco3)CC2)c2c3c(sc2n1)CC(C)CC3` (configuration not stated): 5.51 µM.

What is called AC50 is the midpoint of the concentration-response curve, whichever way the signal moves.
